According to publication PMC10096453, “One-Pot Synthesis and Evaluation of Antioxidative Stress and Anticancer Properties of an Active Chromone Derivative” (Molecules, 2023):
Where two headings read alike, the source gives them in different places.

How the values were obtained:
[1] = tested on: HEK293 cells; assay: Cell migration scratch assay, HEK293; assay type: cell-based; conditions: HEK293, 100 μM, 24 and 48 h
Protocol: Cell migration in the HEK293 and the HeLa cell lines was investigated. The assay was conducted to investigate cell maintenance after being damaged. The active samples from in vitro antioxidant activity were examined. Cells were grown in a 24-well plate until 80% confluence and treated with 2f and 2j for 24 or 48 h compared to the untreated control. The cells in each well were then scratched to create a wound area across the center of the plates using a plastic 20 μL pipette tip. Cell images were taken immediately, and the scratch area was measured at 0, 24, and 48 h. During the experiment, the percentage of wound area was tracked as an indirect assessment. Compared to the control, the percentage of empty area change at each time point was quantified with a Nikon eclipse Ts2R inverted microscope.
Figure 7 A scratch assay was performed to examine the migration ability of synthesized compounds 2f and 2j at 100 μM compared with untreated control. Representative pictures of the assay induce the migration of HEK cells using quercetin as a reference. Pictures were taken at the start of the experiment (0 h) 24 and 48 h later. Pictures of representative experiments are shown, and the relative migration of cells is represented with a bar graph; means ± SD (n = 3; *: p < 0.05 and **: p < 0.001, Turkey HSD), Scale bars represent 500 μm.

[2] = tested on: HeLa cell; assay: MTT anticancer activity assay, HeLa cells; assay type: cell-based; conditions: for Anticancer activity on cervical cancer cells / IC50: HeLa; for IC50 / viability at 100 µM: Homo sapiens
Protocol: (§1) HEK293, HACAT, and HeLa cells were grown in modified Eagles’ minimum essential medium (EMEM, Gibco) with 10% fetal bovine serum (FBS, Gibco), 1% of 100 U/mL streptomycin and 100 U/mL penicillin (Gibco). Cells were seeded in culture flasks and maintained in an incubator at 37 °C in a humidified atmosphere with 5% CO2. After reaching 80–90% of confluence, cells were detached by incubation with 0.25% trypsin-0.2% EDTA (Gibco) for 5 min and plated for experiments.
(§2) This study examined cell cultures of HEK293, HACAT, and HeLa cells. The cytotoxicity of the test samples was carried out by the MTT (3-(4,5-dimethylthiazol-2-yl)-2,5-diphenyltetrazolium bromide) assay. The cells were seeded in 96-well microliter plates (2.0 × 10^4 cells/well). Stock solutions of the test compounds were prepared in DMSO. After 24 h, cells were treated with different concentrations of samples and diluted with media to obtain the final desired concentration. The treated cells were then incubated at 37 °C and 5% CO2 for 24 and 48 h. After incubation, the medium was replaced with 0.05% w/v of MTT solution in PBS and further incubated for 3 h. The solution was then discarded and DMSO was added to dissolve the formed formazan crystals. Each well’s absorbance (A) was measured at 570 nm using a microplate reader (FLUOstar Omega^TM, BMG Labtech, Ortenberg, Germany). All experiments were carried out in triplicate and repeated for at least three experiments.

[3] = ABTS radical cation scavenging assay; assay type: biochemical; conditions: for EC50: read-out: ABTS734nm EC50 ± SD
Description: (§3) Three in vitro antioxidant assays (DPPH, FRAP, and ABTS) were utilized to evaluate the antioxidant property of the synthesized compounds. The DPPH (α, α-diphenyl-β-picrylhydrazyl) assay is the well-known approach to determine antioxidant activity using a stable free radical DPPH, measure the absorbance change, and calculate the absorbance change in the percentage of scavenging activity. […] For example, the ferric-tripyridyltriazine (Fe^3+-TPTZ, colorless) complex is reduced to ferrous tripyridyltriazine (Fe^2+-TPTZ) at low pH and introduces a blue color with maximum absorption at 593 nm. The change in absorbance is related to antioxidant activity. However, a significant limitation of these in vitro tests is the non-physiological measurement conditions (no enzymatic condition and no transition metal ion chelating activity); therefore, the results obtained may not reflect the antioxidant activity of the source material under the biological conditions that exist in humans and animals. The ABTS assay involves a more drastic radical that is chemically produced. The use of ABTS for antioxidant activity determination of hydrophilic and lipophilic pure compounds has attracted interest due to its solubility in organic and aqueous media and stability in a wide pH range [31].
The ABTS assay was prepared by reaction of 5 mL of a 7 mM aqueous ABTS (2,2′-azino-bis (3-ethylbenzthiazoline-6-sulphonic acid) solution and 2.45 mM potassium persulfate solution (K2S2O8). After preparation and storage in the dark for 16 h, the radical cation solution was further diluted in ethanol to absorb about 0.7 at 734 nm. Trolox and test sample solutions were prepared in stock solution with DMSO and diluted with ethanol. A solution of 100 μL of the sample was mixed with 100 μL of the ABTS reagent in a 96-well plate. The mixture was shaken in a dark place for 10 min and incubated at 37 °C for 20 min, and the absorbance was determined at 734 nm. Absorbance determinations were recorded immediately and not more than 1 h after adding the reagent. The solution without the sample was used as a blank. All the determinations were made in triplicate. The sample’s scavenging percentage was calculated from this equation: scavenging percentage = (Absorbance control − Absorbance sample) × 100/Absorbance control. EC50 values were calculated from the relationship curve of %scavenging versus sample concentration.

[4] = MTT cytotoxicity assay, HACAT cells; assay type: cell-based; conditions: human; for viability at 24 h, 100 µM: read-out: % Viability ± SD (at 100 μM) HACAT 24 h; for viability at 48 h, 100 µM: read-out: % Viability ± SD (at 100 μM) HACAT 48 h
Protocol: as §1, §2

[5] = DPPH radical scavenging assay; assay type: biochemical; design: DPPH517nm % SA ± SD: dose or concentration left out as unconfirmed; conditions: for DPPH517nm % SA ± SD: mean of three measurements; for EC50: read-out: DPPH517nm EC50 ± SD
Description: as §3
The DPPH method was followed and modified from a previous study. Trolox was used as a reference. The DPPH stock solution at a concentration of 0.625 mM was prepared in 50% ethanol and kept at 4 °C in the dark. On the day of the experiment, 0.208 mM fresh DPPH working solution was freshly prepared by further diluting with 50% ethanol. […] Each reaction was carried out in a 96-well plate, and 100 μL of test preparation and DPPH solution were added. The 96-well plate was then shaken well for 10 min and kept in the dark at room temperature for 20 min, and the absorbance was recorded at 515–517 nm. According to the method described, delocalization also results in a deep violet color and is quantified as a percentage of scavenging activity. % scavenging activity (SA) = 100 × (Asample − Ablank)/(Acontrol − Ablank)(1) where Acontrol and Asample are the absorbances of the test DPPH without and with a sample, respectively. Ablank is the absorbance of the solvent used. The EC50 values were calculated from the relationship curve of %SA versus sample concentration. The experiment was carried out at least in triplicate.

[6] = 24 h, read-out: % Viability ± SD (at 100 μM) HeLa 24 h
[7] = 48 h, read-out: % Viability ± SD (at 100 μM) HeLa 48 h

Row | IC50 ([2]; 24 h) | EC50 [3] | EC50 [5] | SMILES | Cell migration vs untreated [1] | Anticancer activity on cervical cancer cells ([2]; 24 h) | viability at 100 µM [2, 6] | viability at 100 µM [2, 7] | ABTS734nm % Scavenging at 500 µM [3] | viability at 24 h, 100 µM [4] | viability at 48 h, 100 µM [4] | DPPH517nm % SA ± SD [5]
1 | 191 ± 6.01 µM | 10.2 ± 0.7 µM | 34.1 ± 3.28 µM | O=C(c1ccccc1)c1c(-c2ccccc2)oc2c(O)c(O)ccc2c1=O [2f, 3-Benzoyl-7,8-dihydroxy-2-phenyl-4H-chromen-4-one] | significant induction of cell migration | contained anticancer activity | 109.3 ± 0.92% | 29.2 ± 0.4% | 81.63 ± 1.80% | 81.6 ± 8.46% | 77.1 ± 5.03% | 93.55 ± 3.20%
2 | 101 ± 3.18 µM | 22.2 ± 0.39 µM | 49.9 ± 11 µM | O=C(Oc1ccc2c(=O)c(C(=O)c3ccccc3)c(-c3ccccc3)oc2c1O)c1ccccc1 [2j, 3-Benzoyl-8-hydroxy-4-oxo-2-phenyl-4H-chromen-7-yl benzoate] | significant induction of cell migration | contained anticancer activity | 65.2 ± 1.42% | 30 ± 1.23% | >95% | 72.6 ± 5.53% | 58 ± 2.63% | 92.88 ± 0.46%
3 | 192.4 ± 1.27 µM | 11.4 ± 0.17 µM | 18.3 ± 5.62 µM | O=c1c(O)c(-c2ccc(O)c(O)c2)oc2cc(O)cc(O)c12 [Quercetin, quercetin, reference compound] | significant induction of cell migration | – | 69.1 ± 1.93% | 19.2 ± 0.25% | 88.51 ± 0.80% | 85.6 ± 125% | 76.8 ± 2.32% | 93.89 ± 2.04%
